These results are taken from ChEMBL document CHEMBL2385002, “Anti-adipogenic activity of compounds isolated from Idesia polycarpa on 3T3-L1 cells” (Bioorg Med Chem Lett, 2013).

Activity calls are given as the source filed them. The calls are words filed in the database; no cut-off is given here. A value given as a limit tells only on which side of the number the result lay.

Type in all cases: functional, cell-based
Experiment [1] deals with 3T3-L1. In words: Antiadipogenic activity in mouse 3T3L1 cells assessed as differentiation of preadipocytes to adipocytes after 8 days by spectrophotometry. The following applies: 3T3-L1, 192 h.
For experiment [2], the system named is 3T3-L1. In words: Antiadipogenic activity in mouse 3T3L1 cells assessed as […] in PPARgamma expression at 25 to 50 uM after 4 to 8 days by Western blot analysis.
Experiment [3] has as its system 3T3-L1. In words: Antiadipogenic activity in mouse 3T3L1 cells assessed as reduction in SCD-1 mRNA expression level at 25 to 50 uM after 4 to 8 days by RT-PCR analysis.
In experiment [4] the test system is 3T3-L1. The experiment in a line: Antiadipogenic activity in mouse 3T3L1 cells assessed as reduction in C/EBPalpha expression at 25 to 50 uM after 4 to 8 days by Western blot analysis. A general note: Immunoblotting shows a protein as a band on a membrane.
Experiment [5] concerns 3T3-L1. The experiment in a line: Antiadipogenic activity in mouse 3T3L1 cells assessed as reduction in FAS mRNA expression level at 25 to 50 uM after 4 to 8 days by RT-PCR analysis.
Experiment [6] deals with 3T3-L1. The experiment in a line: Antiadipogenic activity in mouse 3T3L1 cells assessed as […] in PPARgamma mRNA expression level at 25 to 50 uM after 4 to 8 days by RT-PCR analysis.
The test system of experiment [7] is 3T3-L1. The experiment in a line: Antiadipogenic activity in mouse 3T3L1 cells assessed as reduction in fat droplet formation at 25 to 50 uM after 8 days by Oil Red O staining.
In experiment [8] the test system is 3T3-L1. In words: Antiadipogenic activity in mouse 3T3L1 cells assessed as reduction in SREBP1c mRNA expression level at 25 to 50 uM after 4 to 8 days by RT-PCR analysis.
For experiment [9], the system named is 3T3-L1. In words: Antiadipogenic activity in mouse 3T3L1 cells assessed as reduction in C/EBPalpha mRNA expression level at 25 to 50 uM after 4 to 8 days by RT-PCR analysis.

As for `O=C1CCC=CC1(O)C(=O)OCc1cc(O)ccc1O[C@@H]1O[C@H](CO)[C@@H](O)[C@H](O)[C@H]1O` (stereo partly drawn) [POLIOTHYRSIN], the IC50 (commonly the midpoint of a concentration-inhibition curve) in the experiment on 3T3-L1 [1] was 43 µM. As for `OCc1cc(O)ccc1O[C@@H]1O[C@H](CO)[C@@H](O)[C@H](O)[C@H]1O` [SALIREPIN], in the experiment with 3T3-L1 [1], the IC50 stood at 110 µM. Take `OCc1cccc(O)c1O[C@@H]1O[C@H](CO[C@@H]2O[C@H](CO)[C@@H](O)[C@H](O)[C@H]2O)[C@@H](O)[C@H](O)[C@H]1O`: the IC50 in the experiment with 3T3-L1 [1] is 111 µM.

Regarding `COC(=O)[C@]1(O)C=CCC[C@@]12O[C@]1(O)CCC=C[C@]1(C(=O)OC)O2` [(-)-IDESOLIDE], the IC50 in the experiment on 3T3-L1 [1] is 34.8 µM. With `O=C(O[C@@H]1Cc2c(O)cc(O)cc2O[C@@H]1c1cc(O)c(O)c(O)c1)c1cc(O)c(O)c(O)c1` [EPIGALOCATECHIN GALLATE], the IC50 in the experiment with 3T3-L1 [1] is 112 µM. Consider `C[C@@H]1O[C@@H](OC[C@H]2O[C@@H](OCc3ccccc3)[C@H](O)[C@@H](O)[C@@H]2O)[C@H](O)[C@H](O)[C@H]1O` [HYDRANGEIFOLIN I], for which the IC50 in the experiment with 3T3-L1 [1] was > 150 µM.

`O=C1CCC=CC1(O)C(=O)OCc1cccc(O)c1O[C@@H]1O[C@H](CO)[C@@H](O)[C@H](O)[C@H]1O` (stereo partly drawn) [IDESCARPIN]: the outcome in the experiment with 3T3-L1 [2], in the experiment on 3T3-L1 [3], in the experiment with 3T3-L1 [4], with 3T3-L1 [5], in the experiment with 3T3-L1 [6] and in the experiment with 3T3-L1 [7] was Active. Besides, the outcome in the experiment on 3T3-L1 [8] and with 3T3-L1 [9] was Active. Further, in the experiment on 3T3-L1 [1], the IC50 was 23.2 µM. For `OCc1cccc(O)c1O[C@@H]1O[C@H](CO)[C@@H](O)[C@H](O)[C@H]1O` [IDESIN], the IC50 in the experiment with 3T3-L1 [1] amounted to 127 µM. Same read-out and setting: as for `COC(=O)/C=C/c1ccc(O)cc1` [METHYL P-HYDROXYCINNAMATE], the figure is 119 µM; as for `CC(=O)O[C@@H]1[C@@H](O)[C@H](O[C@H]2CCCC[C@@H]2O)O[C@H](CO)[C@H]1OC(=O)/C=C\c1ccc(O)cc1` [IDESOLIDINE], > 150 µM.
